Source: paper PMC9905117, “Characterization of the metabolism of eupalinolide A and B by carboxylesterase and cytochrome P450 in human liver microsomes” (Frontiers in Pharmacology, 2023)

System: Carboxylesterase
Assay: Inhibition of EA or EB hydrolysis in HLMs by carboxylesterase inhibitor BNPP
Assay type: biochemical, human
Conditions: HLMs 0.5 g/L, no NADPH, 30 min
Protocol: To determine ideal BNPP concentration for inhibiting carboxylesterase activity in HLMs, an incubation system consisting of 100 mM phosphate buffer solution at pH 7.4, HLMs (0.5 g/L), MgCl2 (5 mM) and BNPP (0.5, 1, 1.5 and 2 mM) was prepared ([Zhuang et al., 2014]; [Wang Y. Q. et al., 2020]; [Zhang et al., 2022d]; [Jin et al., 2022]). The mixture was preincubated at 37°C for 5 min and the metabolic reaction was initiated by addition of EA or EB (at a final concentration of 10 μM). Positive control groups lacked BNPP while negative control groups contained deactivated HLMs. […] The above reaction was terminated by adding 200 µl of ice-cold stop solution at 30 min. Sample preparation and evaluation were as described in 2.2.1. All incubations were performed in triplicate. The percentage of EA or EB hydrolysis inhibition was calculated using the following Eq. 1: Inhibition%=1−∆substrate in the presence of chemical inhibitor/∆substrate in the absence of chemical inhibitor×100% (1)

Structure (SMILES): O=[N+]([O-])c1ccc(OP(=O)(O)Oc2ccc([N+](=O)[O-])cc2)cc1 [BNPP, bis(4-nitrophenyl) phosphoricacid]
- inhibitory percentage of EA hydrolysis (BNPP 0.5 mM, EA 10 μM): 87.38%
- inhibitory rate of EB hydrolysis (BNPP 2 mM, EB 10 μM): 86.11%
